Measured values taken from patent US20160206550A1, “STROMAL DELLS DERIVED CONDITIONED MEDIUM, METHOD OF OBTAINING SAID CONDITIONED MEDIUM COMPOSITIONS, FORMULATIONS AND APPLICATIONS THEREOF” (STEMPEUTICS RESEARCH PVT. LTD., priority 2013, published 2016).

System: HFF-1 cells
Test: Cytoprotective/viability restorative effect against tbOH damage (MTT)
Type: cell-based, human
Conditions: 100 μM, positive control in serum free medium
Experimental: Cytoprotective viability restorative effects of 10×CM generated by process 2 against oxidative damage in dermal fibroblast cells upon treatment with 300 μM of tert-butyl hydroperoxide (tbOH) for 2 h and post treatment of damaged fibroblast with 10×CM for 48 h is evaluated by MTT assay. Treatment of HFF-1 cells with 300 μM of tbOH leads to 35% decrease in cellular viability in SFM treated as compared to untreated cells. The cytoprotection obtained with 10×CM is 11%, 18% and 12% higher at the doses of 5%, 10% and 50% respectively as compared to respective 10× control medium treated cells against tbOH damage (FIG. 10). In this assay, serum free medium with ascorbic acid (SFM+AA) is used as a positive control. Treatment of HFF-1 cells with 100 μM ascorbic acid (AA) also leads to 12% cytoprotection against tbOH damage. […] 10×CM has shown a trend in the ability to restore the viability of oxidative stressed fibroblast cells at the concentrations 5%, 10% and 50%. Maximum activity is observed at 10% 10×CM.

## O=C1O[C@H]([C@@H](O)CO)C(O)=C1O [ascorbic acid]
  cytoprotection against tbOH damage: 12%
